Test: Solubility experiments and 1H-NMR spectra: complexing with cyclodextrins
Type: physicochemical
Conditions: hydrochloride of BIII 890; γ-cyclodextrin, HPγCD, HPβCD and SBEβCD

C[C@@H](CN1CC[C@@]2(C)c3cccc(O)c3C[C@@H]1C2(C)C)OCc1ccccc1 [BIII 890, (−)-(1R,2″S)-2-(2″-benzyloxy)propyl-4′-hydroxy-5,9,9-trimethyl-6,7-benzomorphan]
complexing of the active substance by cyclodextrins: complex

— patent US20040019013A1, “Formulation for the parenteral application of a sodium channel blocker” (Boehringer Ingelheim Pharma GmbH & Co. KG, Ingelheim, …, priority 2002, published 2004)
